Data on two compounds can be found in ChEMBL document CHEMBL1141161, “Structure of aldehyde reductase holoenzyme in complex with the potent aldose reductase inhibitor fidarestat: implications for inhibitor binding and selectivity” (J Med Chem, 2005).

The target of the test is T1, Aldo-keto reductase family 1 member A1 (Sus scrofa, UniProt P50578).
T1 sequence (P50578 whole entry): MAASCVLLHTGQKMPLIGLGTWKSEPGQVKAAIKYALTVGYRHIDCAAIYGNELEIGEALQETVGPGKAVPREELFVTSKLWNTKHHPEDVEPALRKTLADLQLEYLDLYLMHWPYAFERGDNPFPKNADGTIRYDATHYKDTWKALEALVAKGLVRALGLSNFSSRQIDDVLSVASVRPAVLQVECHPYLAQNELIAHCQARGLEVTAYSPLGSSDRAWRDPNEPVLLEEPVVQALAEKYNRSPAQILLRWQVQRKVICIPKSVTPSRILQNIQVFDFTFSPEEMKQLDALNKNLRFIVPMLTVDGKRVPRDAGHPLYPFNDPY
Nature of the test: Inhibitory concentration against porcine ALR1 Aldehyde reductase using DL-glyceraldehyde.

Structures are written as SMILES.

The compound `NC(=O)[C@@H]1C[C@]2(NC(=O)NC2=O)c2cc(F)ccc2O1` showed an IC50 of 2.5 µM.

On to `NC(=O)[C@H]1C[C@]2(NC(=O)NC2=O)c2cc(F)ccc2O1`, for which the IC50 was 17.8 µM.

As a reminder, the IC50 is the concentration at which inhibition is half-maximal. Read a low IC50 as greater potency in that assay.
